The source made the active and inactive calls. Cut-off read from the data, not from the text of the source: actives have a measured IC50 and inactives only a lower limit.
target: Envelope glycoprotein gp160 (Human immunodeficiency virus 1, UniProt Q6QLK5); assay: inhibitors of HIV fusion peptide binding, primary screen, biochemical, uHTS, fluorescence dequenching (AID 1986)
Sequence (Q6QLK5 whole entry, the tested form may be a part): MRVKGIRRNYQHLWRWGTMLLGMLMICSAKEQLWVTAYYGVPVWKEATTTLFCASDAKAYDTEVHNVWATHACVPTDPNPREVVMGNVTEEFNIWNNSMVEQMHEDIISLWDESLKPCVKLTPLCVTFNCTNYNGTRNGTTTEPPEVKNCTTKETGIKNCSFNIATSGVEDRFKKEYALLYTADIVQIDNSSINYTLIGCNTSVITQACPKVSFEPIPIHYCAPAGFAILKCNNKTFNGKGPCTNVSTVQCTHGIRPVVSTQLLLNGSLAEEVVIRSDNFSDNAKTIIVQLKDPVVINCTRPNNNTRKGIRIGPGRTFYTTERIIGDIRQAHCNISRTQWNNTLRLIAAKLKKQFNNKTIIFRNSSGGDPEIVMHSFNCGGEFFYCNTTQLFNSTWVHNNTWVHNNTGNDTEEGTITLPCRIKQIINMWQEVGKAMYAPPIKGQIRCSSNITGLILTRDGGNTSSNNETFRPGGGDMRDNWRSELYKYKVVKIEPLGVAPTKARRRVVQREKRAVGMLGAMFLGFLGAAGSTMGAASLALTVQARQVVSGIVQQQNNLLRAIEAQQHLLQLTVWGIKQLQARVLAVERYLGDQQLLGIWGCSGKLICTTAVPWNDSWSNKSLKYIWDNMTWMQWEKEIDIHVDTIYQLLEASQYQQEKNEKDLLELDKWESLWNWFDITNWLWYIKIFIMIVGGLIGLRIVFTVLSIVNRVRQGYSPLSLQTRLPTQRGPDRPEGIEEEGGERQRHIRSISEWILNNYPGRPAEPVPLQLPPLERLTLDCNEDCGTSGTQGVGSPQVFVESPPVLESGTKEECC

SMILES	IC50
CCn1nc([N+](=O)[O-])c(C(C#N)c2nc3cc(C(F)(F)F)ccc3s2)c(Cl)c1=O (stereo not drawn)	14.9 µM (active)
CC(c1ccccc1)N1C(=O)c2ccc(C(=O)Nc3ccccc3C(=O)O)cc2C1=O (stereo not drawn)	19.3 µM (active)
Cc1c2c(=O)n(-c3nc4ccccc4s3)nc-2cc(O)n1Cc1ccccc1	13.8 µM (active)
